Data on 4 molecules can be found in publication PMC10819771 (Pharmaceuticals, 2023).

Where “and” joins values, the source holds several entries; their conditions need not be identical. Identical values can stand only once. Like-named read-outs stand apart in the source and are kept apart here.

The subject of one assay is SiHa. As to the kind of experiment: MTT antiproliferative assay, SiHa. In kind it is cell-based, human. To be noted: for IC50: Homo sapiens, SiHa, MTT, 72 h, cervical cancer cells, read-out: IC50 Values (μM) ± SEM SiHa; for Selectivity Index HEK293/SiHa: IC50 HEK293 / IC50 SiHa. The procedure, abridged:
(§1)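 Absorbance at 545 nm of DMSO-solubilised formazan, formed during a 4 h MTT incubation, was compared with untreated cells. Beforehand, cells had been treated for 72 h with six compound levels from 0.1 to 30.0 µM. At least two independent determinations used five parallel wells per condition.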

The test system of another assay is MDA-MB-231. As to the kind of experiment: MTT antiproliferative assay, MDA-MB-231. In kind it is cell-based, human. As to conditions: for IC50: Homo sapiens, MDA-MB-231, 72 h, MTT, 72 h, breast cancer cells, read-out: IC50 Values (μM) ± SEM MDA-MB-231; for Selectivity Index HEK293/MDA-MB-231: IC50 HEK293 / IC50 MDA-MB-231. The essentials:
as §1
In general terms: Tetrazolium assays rely on reduction of a dye to a coloured formazan, in cell work by metabolically active cells.

The subject of a further assay is HEK293. As to the kind of experiment: MTT proliferation test on normal cells, HEK293. In kind it is cell-based. To be noted: Homo sapiens, normal epithelial cells, cytotoxicity, read-out: IC50 Values (μM) ± SEM HEK293. As to the method: The MTT proliferation test on the epithelial cell line HEK293 was performed as pre-viously described. The 50% inhibiting concentrations (IC50) were determined by linear regression analysis.

The subject of a further assay is FBCL-2T. As to the kind of experiment: FRET-melting, FBCL-2T. Format: binding. To be noted: ligand 2 μM, DNA 0.2 μM, 10 mM KCl, 90 mM LiCl, pH 7.2.
The subject of assay [1] is human telomeric sequence 24TTG. Description: Native electrospray mass spectrometry, 24TTG. Format: binding. As to conditions: 10 µM DNA, 20 µM ligand; for Bound DNA (%) 24TTG: 100 mM ammonium acetate. As to the method: These parameters ensured a good signal intensity without disrupting noncovalent complexes, which was verified using d[G4T4G4]2 as a control. Oligonucleotides were purchased lyophilized, and RP-cartridge purified from Eurogentec (Kanaka Eurogentec, Seraing, Belgium), then buffer exchanged with ammonium acetate (5 M; Sigma-Aldrich, Saint-Quentin-Fallavier, France) using Amicon Ultra (3 K cut-off; Merck Millipore, Cork, Ireland). Sample solutions were prepared by diluting the proper volume of oligonucleotide stock solutions to reach 10 µM of DNA and 20 µM of ligand, in 100 mM ammonium acetate. The solutions were incubated for 16 h at 4 °C before analysis. Kd were calculated as already described.

The test system of another assay is telomerase. As to the kind of experiment: Telomerase activity (TRAP assay) in MCF-7 cell lysates. To be noted: MCF-7 cell lysate. In kind it is biochemical, human. As to the method:
Telomerase activity was assessed using the TRAP assay kit (TRAPeze® RT telomerase detection kit, Chemicon, Millipore Sigma S7700, Merck KGaA, Darmstadt, Germany) according to manufacturer’s instructions with some modifications. Briefly, […] in CHAPS lysis buffer and proteins were extracted. Protein extracts and various concentrations of compounds (0 to 5 µM) were used to extend a synthetic telomeric DNA using an enzymatic reaction (30 °C during 20 min), followed by a quantification of telomeric DNA using a telomeric PCR amplification: 95 °C for 3 min, 2 cycles of 95 °C for 20 s, and 49 °C for 20 s, followed by 30 cycles 95 °C for 20 s and 60 °C for 20 s with signal acquisition) in a Stratagene Mx3005P system (Agilent, Les Ulis, France) using specific telomeric PCR quantitative primers. Each sample was measured in technical duplicate with control DNA. For each drug and each dilution, we used biological triplicate of cell lysates.

Assay [2] concerns 24TTG (DNA, G4) TTGGGTTAGGGTTAGGGTTAGGGA
Description: native ESI-MS. As to conditions: 100 mM NH4+ (ammonium acetate), pH 6.8, 10 µM DNA, 20 µM ligand, first of two successive steps.

In assay [3] the test system is ds26 (DNA, duplex) CAATCGGATCGAATTCGATCCGATTG
Description: native ESI-MS. As to conditions: 100 mM NH4+ (ammonium acetate), pH 6.8, 10 µM DNA, 20 µM ligand, first of two successive steps.

Assay [4] has as its system human telomeric sequence F21T. As to the kind of experiment: FRET-melting, F21T. Format: binding. As to conditions: ligand 2 μM, DNA 0.2 μM, 10 mM KCl, 90 mM LiCl, pH 7.2.
In assay [5] the test system is Fc-MYCT (DNA, G4) GGGTGGGTAGGGTGGGTAA
Description: FRET melting. To be noted: 1 mM K+, 99 mM Li+ (table footnote says 10 mM KCl, 90 mM LiCl); 10 mM lithium cacodylate pH 7.2; 0.2 µM DNA, 2 µM compound.

Assay [6] concerns FBCL-2T (DNA, G4) GGGCGCGGGAGGAAGGGGGCGGG
Description: FRET melting. As to conditions: 10 mM K+, 90 mM Li+; 10 mM lithium cacodylate pH 7.2; 0.2 µM DNA, 2 µM compound.

In assay [7] the test system is F21T (DNA, G4) GGGTTAGGGTTAGGGTTAGGG
As to the kind of experiment: FRET melting. As to conditions: 10 mM K+, 90 mM Li+; 10 mM lithium cacodylate pH 7.2; 0.2 µM DNA, 2 µM compound.

The mark [8] stands for this setting: first binding event (1:1 complex), read-out: Kd1 24TTG.
The mark [9] stands for this setting: second binding event (2:1 complex), read-out: Kd2 24TTG.

As to `CN(C)CCCNCc1ccc(-c2nc(-c3ccc(CNCCCN(C)C)cc3)c3cc(-c4ccccc4)ccc3n2)cc1` [Compound 12b, 2,4-bis{4-[(3-dimethylaminopropyl)aminomethyl]phenyl}-6-phenylquinazoline], the IC50 – broadly, the concentration needed to halve the response being measured – in the assay with SiHa is 1.08 ± 0.1 µM; in the assay with MDA-MB-231, 0.7 ± 0.16 µM; with HEK293, greater than 30 µM. The “Selectivity Index HEK293/SiHa” value in the assay with SiHa was greater than 27.8. Besides, the “Selectivity Index HEK293/MDA-MB-231” value with MDA-MB-231 is on record as greater than 42.8. Further, in the assay on FBCL-2T, the “ΔT1/2 (°C) FBCL-2T” value worked out at 8.9 ± 0.7 °C. Further, the “Bound DNA (%) 24TTG” value in [1] is recorded as 77%. Further, the Kd is 9500 nM in assay [1] (setting [8]) and 1500 nM in assay [1] (setting [9]). The “telomerase activity compared to control” value in the assay on telomerase (5 µM compound) is “reduced drastically”. Besides, the “concentration from which MCF-7 telomerase activity is decreased” value in the assay on telomerase (0 to 5 µM tested) came out at 0.5 µM. The Kd1 in assay [2] (Kd2 1.5, cooperative) was found to be 9.5 µM; in assay [3] (Kd2 130) it was 17 µM.

On to `CN1CCN(CCCCNCc2ccc(-c3nc(-c4ccc(CNCCCCN5CCN(C)CC5)cc4)c4cc(-c5ccccc5)ccc4n3)cc2)CC1` [Compound 12e, 2,4-bis{4-[(4-(4-methylpiperazin-1-yl)butyl)aminomethyl]phenyl}-6-phenylquinazoline], for which the figures for the IC50 in the assay with SiHa and in the assay with MDA-MB-231 were 0.63 ± 0.05 µM and 0.89 ± 0.46 µM, respectively. Also, the “ΔT1/2 (°C) FBCL-2T” value with FBCL-2T is 22.7 °C and 22.7 ± 0.4 °C. In addition, the “ΔT1/2 (°C) F21T” value in assay [4] is 33.9 °C and 33.9 ± 0.5 °C. In assay [1], the “Bound DNA (%) 24TTG” value is listed as 72%. In addition, the Kd in assay [1] (setting [8]) turned out to be 14000 nM; in assay [1] (setting [9]) it was 1900 nM. The ΔT1/2 in [5] was 19.5 ± 1.0 °C; in assay [6], 22.7 ± 0.4 °C; in assay [7] it was 33.9 ± 0.5 °C. Also, the Kd1 in assay [2] (Kd2 1.9, cooperative) was 14 µM; in assay [3] (Kd2 280) it was 30 µM.

As for `CN(C)CCCNCc1ccc(-c2cc(-c3ccc(CNCCCN(C)C)cc3)c3cc(-c4ccccc4)ccc3n2)cc1` [Compound 13a, 2,4-bis{4-[(3-dimethylaminopropyl)aminomethyl]phenyl}-6-phenylquinoline], the IC50 was 0.99 ± 0.15 µM in the assay with SiHa, 0.58 ± 0.02 µM with MDA-MB-231 and greater than 30 µM in the assay on HEK293. The “Selectivity Index HEK293/SiHa” value in the assay with SiHa is greater than 30.3. Besides, the “Selectivity Index HEK293/MDA-MB-231” value in the assay on MDA-MB-231 is on record as greater than 51.7. Further, the “ΔT1/2 (°C) FBCL-2T” value in the assay on FBCL-2T turned out to be 7.7 ± 0.6 °C. Moreover, in assay [4], the “ΔT1/2 (°C) F21T” value amounted to 21.5 ± 0.4 °C. Moreover, the “Bound DNA (%) 24TTG” value in [1] is 81%. Further, the Kd was determined as 3700 nM in [1] (setting [8]) and 7100 nM in [1] (setting [9]). Further, the values for the Kd1 in assay [2] (Kd2 7.1) and in [3] (Kd2 95) were 3.7 µM and 14 µM, respectively.

Take `CN1CCN(CCCCNCc2ccc(-c3cc(-c4ccc(CNCCCCN5CCN(C)CC5)cc4)c4cc(-c5ccccc5)ccc4n3)cc2)CC1` [Compound 13d, 2,4-bis{4-[(4-(4-methylpiperazin-1-yl)butyl)aminomethyl]phenyl}-6-phenylquinoline]: the values for the IC50 in the assay on SiHa and with MDA-MB-231 were 1.11 ± 0.37 µM and 1.64 ± 0.11 µM, respectively. The “ΔT1/2 (°C) FBCL-2T” value in the assay on FBCL-2T was 5.0 ± 1.1 °C. Also, the “ΔT1/2 (°C) F21T” value in assay [4] is 8.0 ± 1.5 °C. The “Bound DNA (%) 24TTG” value in assay [1] is reported as 39%. Moreover, the Kd amounted to 29000 nM in [1] (setting [8]) and 83000 nM in assay [1] (setting [9]). The molecule also yielded a ΔT1/2 in assay [6] of 5.0 ± 1.1 °C. The results for the Kd1 in [2] (Kd2 83) and in [3] (Kd2 460) were 29 µM and 85 µM, respectively.
